Data published in publication PMC10703884, “Targeting the COMMD4–H2B protein complex in lung cancer” (British Journal of Cancer, 2023).
pEC50: −log10 of the molar value. Entries after “also recorded” stand apart in the source; their conditions may differ. No end group written: not given here.

Key:
[1] = test system: H460, H1299 and CRL5889 NSCLC cells; experiment: Clonogenic cell viability after IR, NSCLC cells; type: cell-based; details: varying IR doses, 7–10 days recovery, three independent experiments, compared to control siRNA or FLAG-H2BMUT1/mock
Procedure: (§1) H1299, CRL5889 and H460 cells were cultured in Roswell Park Memorial Institute (RPMI) 1640 medium (Life Technologies) containing 10% foetal bovine serum (Thermo Fisher Scientific). Human bronchial epithelial cells (HBEC3-KT) were maintained in keratinocyte serum-free medium supplemented with epidermal growth factor and bovine pituitary extract (Life Technologies). The histology features and origin of all cell lines used have been previously described. Cell lines were authenticated using STR profiling. Cells were grown in a humidified incubator at 37 °C/5% CO2 atmosphere. All cell lines were verified to be free of mycoplasma contamination.
(§2) Irradiations were done at room temperature using a ^137Cs source (Gammacell 40 Exactor [MDS Nordion]; dose rate 1.1 Gy/min). Phalloidin-Atto 488 was purchased from Sigma-Aldrich and Hoechst 33342 was purchased from Thermo Fisher Scientific.
(§3) For siRNA transfections, cells were transfected with negative control or COMMD4 siRNA #2 (CCAUGUCCCUCUCAGCAGA[dT][dT] MISSION® siRNA, Sigma-Aldrich) using RNAiMax (Life Technologies) as previously described and samples were analysed 48 to 72 h post-transfection. […] Cells were mock-transfected, or transfected with FLAG-H2BWT/FLAG-H2BMUT1, or COMMD4-FLAG/A70K with FuGENE® HD (Promega) using the manufacturer’s protocol and analysed 24 h post-transfection. […]

HBEC3-KT cells [2] = experiment: Clonogenic cell viability after IR, HBEC3-KT cells; type: cell-based, Human; details: varying IR doses, 7–10 days recovery, three independent experiments
Procedure: as §1, §2, §3

NSCLC cells = experiment: Immunofluorescence γH2AX and MDC1 foci, NSCLC cells; type: cell-based; details: 6 Gy IR, 0.5 to 2 h post-IR, 50 cells per condition, three independent experiments
Procedure: (§4) For siRNA transfections, cells were transfected with negative control or COMMD4 siRNA #2 (CCAUGUCCCUCUCAGCAGA[dT][dT] MISSION® siRNA, Sigma-Aldrich) using RNAiMax (Life Technologies) as previously described and samples were analysed 48 to 72 h post-transfection. The H2B wild-type (FLAG-H2BWT) and mutant (FLAG-H2BMUT1) expression constructs were generated with the 10-amino acid peptide and the corresponding mutant cloned into the expression vector pCDNA3.1/(+)-N-DYK containing an N-terminal FLAG tag and a C-terminal nuclear localisation signal (AAKRVKLDS) (GenScript). A70K FLAG-COMMD4 expression construct was generated by mutating the corresponding COMMD4-FLAG construct to harbour an A70K mutation (GenScript). Cells were mock-transfected, or transfected with FLAG-H2BWT/FLAG-H2BMUT1, or COMMD4-FLAG/A70K with FuGENE® HD (Promega) using the manufacturer’s protocol and analysed 24 h post-transfection.
NSCLC and control cells transfected with siRNA or H2B plasmids were grown in optical glass bottom 96-well plates (Cellvis). Post-treatment, cells were pre-extracted with ice-cold extraction buffer (20 mM HEPES (pH 8), 20 mM NaCl, 5 mM MgCl2, 1 mM ATP, 0.5% NP40), to remove the soluble proteins and processed as previous. Images were captured using a Delta Vision PDV microscope 100x/1.42 Oil objective (Applied Precision, Inc). All immunofluorescence figures were assembled using Adobe Photoshop. High-content microscopy was performed using the InCell Analyzer 6500 Imaging System (GE Healthcare Life Sciences). Images were analysed using the InCarta Image Analysis software (GE Healthcare Life Sciences) where a minimum of 50 nuclei were quantified per experiment.
Fig. 4 Induction of DSBs in NSCLC and control cells. a Immunofluorescence staining of H1299 NSCLC cells transfected with control or COMMD4 siRNA #2 and FLAG-H2BWT or FLAG-H2BMUT1 is shown. […]
independent experiments where 50 cells were quantified per condition. γH2AX is shown in […]
mean ± SD from three independent experiments where 50 cells were quantified per condition.

HBEC3-KT cells [3] = experiment: Immunofluorescence γH2AX and MDC1 foci, HBEC3-KT cells; type: cell-based, Human; details: 6 Gy IR, 50 cells per condition, three independent experiments
Procedure: as §4
NSCLC and control cells transfected with siRNA or H2B plasmids were grown in optical glass bottom 96-well plates (Cellvis). Post-treatment, cells were pre-extracted with ice-cold extraction buffer (20 mM HEPES (pH 8), 20 mM NaCl, 5 mM MgCl2, 1 mM ATP, 0.5% NP40), to remove the soluble proteins and processed as previous. […] Images were analysed using the InCarta Image Analysis software (GE Healthcare Life Sciences) where a minimum of 50 nuclei were quantified per experiment. […]

recombinant GST-COMMD4 = target: T1, recombinant GST-COMMD4 (Homo sapiens, UniProt Q9H0A8); experiment: ELISA, binding of H2B peptide and recombinant COMMD4; details: H2B peptide 10 μg/ml on NeutrAvidin plate 2 h; recombinant GST-COMMD4 at different concentrations 45 min, room temperature; anti-COMMD4 antibody, chemiluminescent substrate
T1 construct: purchased Abnova H00054939-P01
Procedure: ELISA was performed using NeutrAvidin High Binding Capacity Coated 96-Well Plates (Thermo Scientific, 15507) according to the manufacturer’s instructions. Briefly, to the appropriate well, added 100 μl of H2B peptide at 10 μg/ml for 2 h at room temperature. Washed each well three times with NP40 buffer, blocked the plate overnight with 4% BSA in NP40 buffer and the next day added different concentrations of recombinant GST-COMMD4 as shown, for 45 min at room temperature. Washed each well three times with NP40 buffer and added anti-COMMD4 antibody for 45 min at room temperature followed by the enzyme-linked secondary antibody for 30 min at room temperature followed by detection using SuperSignal ELISA Pico Chemiluminescent Substrate (Thermo Scientific, 37070).

HBEC3-KT cells [4] = experiment: Annexin V-FITC / propidium iodide apoptosis, HBEC3-KT cells; type: cell-based, Human; details: flow cytometry, three independent experiments
Procedure: as §4, with “A70K FLAG-COMMD4 expression construct was generated by mutating the corresponding COMMD4-FLAG construct to harbour an A70K mutation (GenScript).” left out
The Annexin V-FITC apoptosis kit (United Bioresearch, ALX-850-020-K101, Enzo Life Sciences, Farmingdale, NY, USA) was used to measure viable and apoptotic cells, as previously described. […] CytExpert 2.0 software was used for data acquisition and analysed using the FlowJo v10 software.
Fig. 5 Induction of mitotic catastrophe and apoptosis in NSCLC cells. a Emerin and phalloidin staining respectively in three NSCLC and control HBEC3-KT cells. […] Asterix (*) denotes *P < 0.05 and ** P < 0.005 from 100 cells counted. […] The live cells were stained with Annexin V-FITC and propidium iodide and analysed by flow cytometer. […]

H2B = experiment: FLAG pull-down, COMMD4-FLAG versus A70K mutant with H2B; type: binding; details: compared to COMMD4-FLAG
Procedure: as §4
Co-immunoprecipitations were performed as previously summarised, using ice-cold NP40 buffer. Assays for co-immunoprecipitations were performed at 4 °C from HEK293T, transiently expressing the FLAG-H2B WT or MUT plasmid. Proteins were captured using anti-FLAG M2 Dynabeads (ThermoFisher) and washed three times in NP40 buffer prior to analysis. […]

[5] = Circular dichroism (CD) of H2B peptides; type: physicochemical; details: 0.1 mg/ml peptide, 50% TFE, 10 mM phosphate pH 7.2, 50 mM sodium fluoride, 20 °C, average of five scans
Procedure: For Circular Dichroism (CD), […] and H2BMUT1 peptides were resuspended at a concentration of 0.1 mg/ml in 50% 2,2,2-Trifluoroethanol (Sigma, T63002) with 10 mM Phosphate Buffer pH 7.2 and 50 mM sodium fluoride. The buffer solutions were filtered and degassed before diluting the peptides. The peptides were loaded into a 1 mm path-length quartz cuvette. CD spectra were measured at 20 °C in the far-UV from 250 to 190 nm with a Jasco J-1500 spectropolarimeter at a 0.1 nm interval with a 20 nm/min scan rate. All CD data represent an average of five scans, and the background was corrected with the buffer-matched diluent. The results were converted to the units of molar ellipticity vs. wavelength.

COMMD4-H2B interaction = experiment: COMMD4 pull-down competition (COMMD4-H2B interaction); type: biochemical; details: 1 μg (or amount specified) peptide pre-incubated with recombinant COMMD4 (300 ng) 30 min 4 °C, then 1 μg recombinant H2B 30 min 4 °C, immunoblot
Procedure: 300 ng of recombinant GST-COMMD4 (Abnova, H00054939-P01) was incubated with 1 μg of recombinant H2B (NEB, M2505S) in NP40 buffer for 30 min at 4 °C. For competition experiments, 1 μg (or the amount specified) of the N-terminal biotin-tagged H2B peptide (GenScript) was pre-incubated with recombinant COMMD4 for 30 min at 4 °C prior to addition of recombinant H2B. Proteins were captured using Streptavidin Dynabeads (ThermoFisher) or Protein A Dynabeads (ThermoFisher), washed three times in NP40 buffer, resuspended in 4X Leammli sample buffer (250 mM Tris pH 6.8, 8% SDS, […], 0.02% bromophenol blue, 8% β-mercaptoethanol) and immunoblotted with the indicated antibodies.
Fig. 2 In vitro binding of the H2B peptide. a In vitro binding of biotin-tagged H2B 10-amino acid peptide (H2BWTpep) and H2BMUT1pep (mutation of key amino acid) with COMMD4. […] FLAG-H2BWT and FLAG-H2BMUT1 were immunoprecipitated from HEK293T cells and the co-eluting proteins were immunoblotted with antibodies against […] and FLAG.

T1 sequence (Q9H0A8 whole entry): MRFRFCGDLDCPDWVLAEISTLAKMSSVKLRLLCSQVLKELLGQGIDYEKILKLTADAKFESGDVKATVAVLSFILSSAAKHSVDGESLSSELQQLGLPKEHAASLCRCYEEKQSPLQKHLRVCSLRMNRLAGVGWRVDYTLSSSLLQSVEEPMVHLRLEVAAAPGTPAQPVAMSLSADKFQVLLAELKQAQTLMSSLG

Substance: CCAUGUCCCUCUCAGCAGA[dT][dT] [COMMD4 siRNA, reference compound]
- sensitivity to ionising radiation (clonogenic viability) [1]: hypersensitive to IR compared to control siRNA treated cells
- sensitivity to ionising radiation (clonogenic viability) (HBEC3-KT cells [2]): neither hypersensitive to IR
- γH2AX and MDC1 (DNA repair) foci (NSCLC cells): significantly more γH2AX and MDC1 foci
- γH2AX and MDC1 (DNA repair) foci (HBEC3-KT cells [3]): exhibited increased DNA repair foci

Substance: SFVNDIFERI [H2BWTpep]
- pEC50 (recombinant GST-COMMD4): 7.15

Substance: FLAG-H2BMUT1: corresponding mutant cloned into expression vector containing an N-terminal FLAG tag and a C-terminal nuclear localisation signal ({FLAG}-SFVNDKFERIAAKRVKLDS)
- γH2AX and MDC1 (DNA repair) foci (NSCLC cells): not FLAG-H2BMUT1, displayed a similar phenotype to COMMD4 siRNA depleted cells and had significantly more DNA repair foci
- induction of apoptosis (HBEC3-KT cells [4]): no significant induction of apoptosis

Substance: A70K COMMD4-FLAG: COMMD4-FLAG construct mutated to harbour an A70K mutation
- binding with H2B of COMMD4 mutant (H2B): showed reduced binding with H2B

Substance: SFVNDKFERI [H2BMUT1pep]
- peak ellipticity maximum ([5]; 1 mm path length): 190 nm
- peak minimum ([5]; 1 mm path length): 202 nm
- secondary structure / helicity [5]: possesses little helical structure even in 50% TFE
- effect on COMMD4-H2B interaction (COMMD4-H2B interaction): did not affect the COMMD4-H2B interaction; also recorded: maintains the COMMD4-H2B interaction
